Key:
Assay in all cases: relative viability (nuclei count vs DMSO), 5 days (fraction); higher = more cells survive
Idelalisib + OSI-027 = compound: CC[C@H](Nc1ncnc2[nH]cnc12)c1nc2cccc(F)c2c(=O)n1-c1ccccc1 [Idelalisib] + COc1cccc2cc(-c3nc([C@H]4CC[C@H](C(=O)O)CC4)n4ncnc(N)c34)[nH]c12 [OSI-027] (partner 0.5 µM)
How it was run: (§1)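 Lung cancer cell lines were seeded in 1536-well plates and dosed by pin tool the next day, with either a single drug or a fixed anchor-drug dose combined with five library-drug doses (not always all listed) spaced in √10 steps. Five days later, one step fixed the cells and stained their nuclei (final 0.05% Triton X-100, 1% formaldehyde, 1 ug/ml Hoechst), and nuclei were counted on 4× images. Relative viability is the nuclei count in treated wells divided by the count in vehicle wells, and each value is the median of duplicate plates.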

Idelalisib + Alpelisib = compound: CC[C@H](Nc1ncnc2[nH]cnc12)c1nc2cccc(F)c2c(=O)n1-c1ccccc1 [Idelalisib] + Cc1nc(NC(=O)N2CCC[C@H]2C(N)=O)sc1-c1ccnc(C(C)(C)C(F)(F)F)c1 [Alpelisib] (partner 2 µM)
How it was run: as §1

Idelalisib + Pemetrexed = compound: CC[C@H](Nc1ncnc2[nH]cnc12)c1nc2cccc(F)c2c(=O)n1-c1ccccc1 [Idelalisib] + Nc1nc2[nH]cc(CCc3ccc(C(=O)N[C@@H](CCC(=O)O)C(=O)O)cc3)c2c(=O)[nH]1 [Pemetrexed] (partner 0.2 µM)
How it was run: as §1

Idelalisib + Olaparib = compound: CC[C@H](Nc1ncnc2[nH]cnc12)c1nc2cccc(F)c2c(=O)n1-c1ccccc1 [Idelalisib] + O=C(c1cc(Cc2n[nH]c(=O)c3ccccc23)ccc1F)N1CCN(C(=O)C2CC2)CC1 [Olaparib] (partner 8 µM)
How it was run: as §1

Cell Line	relative viability (Idelalisib + OSI-027; first compound 0.04 µM)	relative viability (Idelalisib + OSI-027; first compound 0.1265 µM)	relative viability (Idelalisib + OSI-027; first compound 0.4 µM)	relative viability (Idelalisib + OSI-027; first compound 1.265 µM)	relative viability (Idelalisib + OSI-027; first compound 4 µM)	relative viability (Idelalisib + Alpelisib; first compound 0.04 µM)	relative viability (Idelalisib + Alpelisib; first compound 0.1265 µM)	relative viability (Idelalisib + Alpelisib; first compound 0.4 µM)	relative viability (Idelalisib + Alpelisib; first compound 1.265 µM)	relative viability (Idelalisib + Alpelisib; first compound 4 µM)	relative viability (Idelalisib + Pemetrexed; first compound 0.04 µM)	relative viability (Idelalisib + Pemetrexed; first compound 0.1265 µM)	relative viability (Idelalisib + Pemetrexed; first compound 0.4 µM)	relative viability (Idelalisib + Pemetrexed; first compound 1.265 µM)	relative viability (Idelalisib + Pemetrexed; first compound 4 µM)	relative viability (Idelalisib + Olaparib; first compound 0.04 µM)	relative viability (Idelalisib + Olaparib; first compound 0.1265 µM)	relative viability (Idelalisib + Olaparib; first compound 0.4 µM)	relative viability (Idelalisib + Olaparib; first compound 1.265 µM)	relative viability (Idelalisib + Olaparib; first compound 4 µM)
LCLC-103H	0.545	0.497	0.368	0.459	0.424	1	0.914	0.744	0.868	0.926	0.508	0.456	0.471	0.505	0.477	0.728	0.791	0.721	0.757	0.705
HOP-62	0.775	0.879	0.719	0.888	0.767	1.19	1.09	–	0.853	1.06	0.353	0.331	0.284	0.278	0.248	0.306	0.538	0.442	0.387	0.498
NCI-H1793	0.366	0.273	0.17	0.246	0.159	0.835	0.571	0.392	0.671	0.529	0.821	0.95	–	0.81	0.627	0.957	0.764	–	0.566	0.529
NCI-H1355	0.401	0.476	0.273	0.401	0.366	0.956	0.767	0.751	0.679	0.568	1.03	1.04	0.926	1.09	1.01	0.78	0.694	0.632	0.776	0.673
COR-L23	0.78	0.815	0.722	0.809	0.74	0.698	0.769	0.634	0.69	0.763	0.186	0.203	0.199	0.204	0.182	0.368	0.326	0.348	0.327	0.316
HCC-44	0.474	0.54	0.437	0.604	0.5	0.831	0.812	0.602	0.577	0.638	0.684	0.664	0.652	0.586	0.687	1.05	0.998	0.962	1.04	1.05
A-427	0.443	0.488	0.332	0.503	0.469	1.11	1.05	0.945	1.15	1.06	1.11	1	0.925	0.998	0.955	0.853	0.788	0.712	0.785	0.711
NCI-H520	0.287	0.265	0.186	0.206	0.179	0.862	0.878	0.64	0.769	0.349	0.75	0.595	0.567	0.637	0.451	0.34	0.364	0.276	0.302	0.269
LXF-289	0.879	0.782	0.632	0.813	0.764	0.997	1.05	0.996	1.01	0.993	0.921	0.933	0.864	0.965	0.94	1.13	1.07	1.02	1.06	1.04
NCI-H2087	0.593	0.513	0.324	0.633	0.319	1.03	1.19	1.11	1.09	0.651	0.742	0.671	0.657	0.637	0.695	0.498	0.628	0.517	0.658	0.591
CAL-12T	0.643	0.753	0.537	0.569	0.537	1.34	1.18	0.898	0.966	0.971	1.34	0.925	1.22	1.21	1.23	0.767	0.823	0.796	0.852	0.75
NCI-H596	0.859	0.746	0.666	0.65	0.551	0.597	0.397	0.483	0.467	0.364	0.52	0.441	0.49	0.536	0.487	0.662	0.667	0.707	0.647	0.675
PC-14	0.946	1.05	0.721	0.338	0.754	0.992	0.882	0.874	0.983	0.9	0.15	0.126	0.148	0.142	0.135	0.268	0.232	0.239	0.384	0.297
NCI-H1915	0.699	0.633	0.627	0.739	0.53	1.14	1.11	1.03	1.11	1.04	0.503	0.514	0.443	0.363	0.504	0.252	0.241	0.276	0.264	0.27
NCI-H647	0.758	0.64	–	0.527	0.423	1.27	1.17	0.845	1.12	0.68	0.166	0.144	0.14	0.154	0.159	0.623	0.602	0.489	0.614	0.281
NCI-H322M	0.612	0.546	0.463	0.539	0.511	0.826	0.764	0.632	0.62	0.716	0.648	0.634	0.639	0.628	0.623	0.652	0.813	0.781	0.747	0.77
